From patent US20230172981A1, “METHODS AND COMPOSITIONS FOR STIMULATION OF CHIMERIC ANTIGEN RECEPTOR T CELLS WITH HAPTEN LABELLED CELLS” (Seattle Children's Hospital (dba Seattle Children's …, priority 2020, published 2023)

Tested on: CD19+K562 cells
Assay: Cytokine release by antiFL CAR T cells with hapten-labeled cells
Format: cell-based
Details: trend; hapten-labeled cells prepared with 5 μM FL-DHPE
Description: Hapten-labeled cells were prepared. CD19+K562 cells were incubated either overnight with 5 μM FL-DHPE or for 20 min with an CD19 antibody labeled with FITC. The hapten-labeled cells were incubated with either one of two antiFL CAR T cells (FITC-E2 scFv, or 4M5.3 scFv). […] Hudecek M, et al., (2013) Clin Cancer Res. 19:3153-64, which is incorporated by reference in its entirety.
The levels of cytokines released by the antiFL CAR T cells were determined. […] The levels of released IFN-γ, and TNF-α were lower for hapten-labeled cells contacted with the antiFL(4M5.3) CAR T cell.

Structure (SMILES): CCCCCCCCCCCCCCCC(=O)OCC(COP(=O)(O)OCCNC(=S)Nc1ccc2c(c1)C(=O)OC21c2ccc(O)cc2Oc2cc(O)ccc21)OC(=O)CCCCCCCCCCCCCCC (stereo not shown) [FL-DHPE, N-(Fluorescein-5-Thiocarbamoyl)-1,2-Dihexadecanoyl-sn-Glycero-3-Phosphoethanolamine]
- cytokine release induced, compared to cells prepared with CD19 antibody labeled with FITC: higher levels of cytokine release
